Reference: patent US9388141B2, “Acylaminocycloalkyl compounds suitable for treating disorders that respond to modulation of dopamine D3 receptor” (AbbVie Deutschland GmbH & Co. KG, priority 2013, dated 2016)

Assays:
[1] = Determination of the microsomal half-life / microsomal clearance; format: in vitro ADME; details: human liver microsomes, 0.5 μM test substance, 0.25 mg microsomal protein/ml, pH 7.4, 37° C.
Procedure: The metabolic stability of the compounds of the invention was determined in the following assay.
The test substances were incubated in a concentration of 0.5 μM as follows:
0.5 μM test substance are preincubated together with liver microsomes from different species (from rat, human or other species) (0.25 mg of microsomal protein/ml) in 0.05 M potassium phosphate buffer of pH 7.4 in microtiter plates at 37° C. for 5 min. The reaction is started by adding NADPH (1 mg/mL). After 0, 5, 10, 15, 20 and 30 min, 50 μl aliquots are removed, and the reaction is immediately stopped and cooled with the same volume of acetonitrile. The samples are frozen until analyzed. The remaining concentration of undegraded test substance is determined by MSMS. The half-life (T1/2) is determined from the gradient of the signal of test substance/unit time plot, it being possible to calculate the half-life of the test substance, assuming first order kinetics, from the decrease in the concentration of the compound with time. The microsomal clearance (mCl) is calculated from mCl=1n2/T1/2/(content of microsomal protein in mg/ml)×1000 [[…]] (modified from references: Di, The Society for Biomoleculur Screening, 2003, 453-462; Obach, DMD, 1999 vol 27. N 11, 1350-1359).

[2] = target: T1, human dopamine D3 receptors (Homo sapiens, UniProt P35462); assay: Dopamine D3 receptor binding, [125I]-iodosulpride displacement; details: membranes of HEK-293 cells with human D3 receptors, 0.1 nM [125I]-iodosulpride
T1 construct: expressed in transfected cells; host or cells: HEK-293
Procedure: (§1) The substance to be tested was either dissolved in methanol/Chremophor® (BASF SE) or in dimethyl sulfoxide and then diluted with water to the desired concentration.
(§2) Each assay mixture was run in triplicate. • The incubation buffer contained 50 mM tris, 120 mM NaCl, 5 mM KCl, 2 mM CaCl2, 2 mM MgCl2 and 0.1% bovine serum albumin, 10 μM quinolone and 0.1% ascorbic acid (prepared fresh daily). […] Each assay mixture was run in triplicate. • The incubation buffer contained 50 mM tris, 120 mM NaCl, 5 mM KCl, 2 mM CaCl2, 2 mM MgCl2 and 0.1% bovine serum albumin. The buffer was adjusted to pH 7.4 with HCl. c) Measurement and Analysis: • After having been incubated at 25° C. for 60 minutes, the assay mixtures were filtered through a Whatman GF/B glass fiber filter under vacuum using a cell collecting device. The filters were transferred to scintillation viols using a filter transfer system. After 4 ml of Ultima Gold® (Packard) have been added, the samples were shaken for one hour and the radioactivity was then counted in a Beta-Counter (Packard, Tricarb 2000 or 2200CA).

[3] = target: T2, human dopamine D2L receptors (long isoform) (Homo sapiens, UniProt P14416); assay: Dopamine D2L receptor binding, [125I]-iodospiperone displacement; details: selectivity ratio Ki (D2L)/Ki (D3)
T2 construct: expressed in transfected cells; host or cells: HEK-293
Procedure: as §1, §2

T1 sequence (P35462 whole entry): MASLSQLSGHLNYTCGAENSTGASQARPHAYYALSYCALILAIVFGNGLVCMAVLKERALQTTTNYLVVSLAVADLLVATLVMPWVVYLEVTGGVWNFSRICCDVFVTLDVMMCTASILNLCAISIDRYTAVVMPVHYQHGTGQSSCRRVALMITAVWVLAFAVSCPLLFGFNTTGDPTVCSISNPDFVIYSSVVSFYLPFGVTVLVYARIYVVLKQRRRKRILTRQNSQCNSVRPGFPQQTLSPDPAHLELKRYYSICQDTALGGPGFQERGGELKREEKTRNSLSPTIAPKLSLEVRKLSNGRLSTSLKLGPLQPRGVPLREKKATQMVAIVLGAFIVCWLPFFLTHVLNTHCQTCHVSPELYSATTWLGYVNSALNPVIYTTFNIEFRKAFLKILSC
T2 sequence (P14416 whole entry, canonical isoform): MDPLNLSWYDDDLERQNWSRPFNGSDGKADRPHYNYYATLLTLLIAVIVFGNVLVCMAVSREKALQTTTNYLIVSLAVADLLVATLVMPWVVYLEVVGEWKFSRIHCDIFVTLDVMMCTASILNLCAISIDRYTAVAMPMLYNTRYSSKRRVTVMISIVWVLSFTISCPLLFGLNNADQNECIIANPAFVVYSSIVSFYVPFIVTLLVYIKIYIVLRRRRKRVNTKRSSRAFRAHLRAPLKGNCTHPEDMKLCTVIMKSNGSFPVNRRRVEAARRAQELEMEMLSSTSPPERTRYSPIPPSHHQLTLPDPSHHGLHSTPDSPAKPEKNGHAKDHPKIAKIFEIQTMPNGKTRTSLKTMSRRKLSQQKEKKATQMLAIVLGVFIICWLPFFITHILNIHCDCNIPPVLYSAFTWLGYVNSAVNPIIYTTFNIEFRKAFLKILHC

| Human mCl [1] | Ki [2] [nM] | D2/D3, Ki (D2L)/Ki (D3) [3] | SMILES |
| --- | --- | --- | --- |
| + (+: 20-120 μl min^−1 mg^−1) | < 10 | ++ (++>20) | CC(C)(C)c1cc(N2CCN(CC[C@H]3CC[C@H](NC(=O)[C@H]4CC[C@H](O)CC4)CC3)CC2)nc(C(C)(C)C)n1 [Compound 20, trans-N-[trans-4-[2-[4-(2,6-ditert-butylpyrimidin-4-yl)piperazin-1-yl]ethyl]cyclohexyl]-4-hydroxy-cyclohexanecarboxamide] |
| + (+: 20-120 μl min^−1 mg^−1) | < 10 | + (+>10) | CC(C)(C)c1nc(C2CCC2)cc(N2CCN(CC[C@H]3CC[C@H](NC(=O)C4CC(O)(C(F)(F)F)C4)CC3)CC2)n1 (relative stereo) [Compound 19, N-[trans-4-[2-[4-(2-tert-butyl-6-cyclobutyl-pyrimidin-4-yl)piperazin-1-yl]ethyl]cyclohexyl]-3-hydroxy-3-(trifluoromethyl)cyclobutanecarboxamide] |
| + (+: 20-120 μl min^−1 mg^−1) | < 10 | + (+>10) | CC(C)(C)c1nc(C(F)F)cc(N2CCN(CCC3CCC(NC(=O)C4CCC(O)CC4)CC3)CC2)n1 (stereo not shown) [Compound 29, N-[4-[2-[4-[2-tert-butyl-6-(difluoromethyl)pyrimidin-4-yl]piperazin-1-yl]ethyl]cyclohexyl]-4-hydroxy-cyclohexanecarboxamide] |
| + (+: 20-120 μl min^−1 mg^−1) | < 10 | ++ (++>20) | COCCc1cc(N2CCN(CC[C@H]3CC[C@H](NC(=O)[C@H]4CC[C@H](O)CC4)CC3)CC2)nc(C(C)(C)C)n1 [Compound 2, trans-N-[trans-4-[2-[4-[2-tert-butyl-6-(2-methoxyethyl)pyrimidin-4-yl]piperazin-1-yl]ethyl]cyclohexyl]-4-hydroxy-cyclohexanecarboxamide] |
| ∘ (∘: >120 μl min^−1 mg^−1) | < 10 | ++ (++>20) | COCCc1cc(N2CCN(CC[C@H]3CC[C@H](NC(=O)[C@H]4CC[C@@H](O)CC4)CC3)CC2)nc(C(C)(C)C)n1 [Compound 4, cis-N-[trans-4-[2-[4-[2-tert-butyl-6-(2-methoxyethyl)pyrimidin-4-yl]piperazin-1-yl]ethyl]cyclohexyl]-4-hydroxy-cyclohexanecarboxamide] |
| ∘ (∘: >120 μl min^−1 mg^−1) | < 10 | ++ (++>20) | COCCc1cc(N2CCN(CC[C@H]3CC[C@H](NC(=O)C4CC(O)(C(F)(F)F)C4)CC3)CC2)nc(C(C)(C)C)n1 (relative stereo) [Compound 25, N-[trans-4-[2-[4-[2-tert-butyl-6-(2-methoxyethyl)pyrimidin-4-yl]piperazin-1-yl]ethyl]cyclohexyl]-3-hydroxy-3-(trifluoromethyl)cyclobutanecarboxamide] |
| + (+: 20-120 μl min^−1 mg^−1) | < 10 | +++ (+++>50) | COCCc1cc(N2CCN(CC[C@H]3CC[C@H](NC(=O)[C@H]4C[C@@H](O)C4)CC3)CC2)nc(C(C)(C)C)n1 [Compound 18, cis-N-[trans-4-[2-[4-[2-tert-butyl-6-(2-methoxyethyl)pyrimidin-4-yl]piperazin-1-yl]ethyl]cyclohexyl]-3-hydroxy-cyclobutanecarboxamide] |
| + (+: 20-120 μl min^−1 mg^−1) | < 10 | +++ (+++>50) | CC(C)(C)c1nc(C2CCCC2)cc(N2CCN(CC[C@H]3CC[C@@H](NC(=O)[C@H]4CC[C@H](O)CC4)CC3)CC2)n1 [Compound 36, trans-N-[cis-4-[2-[4-(2-tert-butyl-6-cyclopentyl-pyrimidin-4-yl)piperazin-1-yl]ethyl]cyclohexyl]-4-hydroxy-cyclohexanecarboxamide] |
| + (+: 20-120 μl min^−1 mg^−1) | < 10 | +++ (+++>50) | COCCc1cc(N2CCN(CC[C@H]3CC[C@H](NC(=O)[C@H]4CC[C@H](O)CC4)CC3)C[C@H]2C)nc(C(C)(C)C)n1 [Compound 34, trans-N-[trans-4-[2-[(3R)-4-[2-tert-butyl-6-(2-methoxyethyl)pyrimidin-4-yl]-3-methyl-piperazin-1-yl]ethyl]cyclohexyl]-4-hydroxy-cyclohexanecarboxamide] |
| + (+: 20-120 μl min^−1 mg^−1) |  |  | COCc1cc(N2CCN(CC[C@H]3CC[C@H](NC(=O)[C@H]4C[C@@H](O)C4)CC3)CC2)nc(C(C)(C)C)n1 [Compound 40, cis-N-[trans-4-[2-[4-[2-tert-butyl-6-(methoxymethyl)pyrimidin-4-yl]piperazin-1-yl]ethyl]cyclohexyl]-3-hydroxy-cyclobutanecarboxamide] |

Second part, the compound before the results:

| SMILES | Human mCl [1] | Ki [2] [nM] | D2/D3, Ki (D2L)/Ki (D3) [3] |
| --- | --- | --- | --- |
| CC(C)(C)c1nc(C2CCC2)cc(N2CCN(CC[C@H]3C[C@H](NC(=O)[C@H]4C[C@H](O)C4)C3)CC2)n1.O=C(O)C(F)(F)F [Compound 39, trans-N-[trans-3-[2-[4-(2-tert-butyl-6-cyclobutyl-pyrimidin-4-yl)piperazin-1-yl]ethyl]cyclobutyl]-3-hydroxy-cyclobutanecarboxamide; 2,2,2-trifluoroacetic acid] | ++ (++: <20 μl min^−1 mg^−1) | < 10 | +++ (+++>50) |
| COCCc1cc(N2CCN(CC[C@H]3C[C@@H](NC(=O)[C@H]4CC[C@@H](O)CC4)C3)CC2)nc(C(C)(C)C)n1 [Compound 12, Cis-N-[cis-3-[2-[4-[2-tert-butyl-6-(2-methoxyethyl)pyrimidin-4-yl]piperazin-1-yl]ethyl]cyclobutyl]-4-hydroxy-cyclohexanecarboxamide] | + (+: 20-120 μl min^−1 mg^−1) | < 50 | +++ (+++>50) |
| COCCc1cc(N2CCN(CC[C@H]3CC[C@@H](NC(=O)C4CC(O)(C(F)(F)F)C4)CC3)CC2)nc(C(C)(C)C)n1 (relative stereo) [Compound 26, N-[cis-4-[2-[4-[2-tert-butyl-6-(2-methoxyethyl)pyrimidin-4-yl]piperazin-1-yl]ethyl]cyclohexyl]-3-hydroxy-3-(trifluoromethyl)cyclobutanecarboxamide] | ++ (++: <20 μl min^−1 mg^−1) | < 50 | +++ (+++>50) |
| COCCc1cc(N2CCN(CCC3CCC(NC(=O)C4CCC(O)CC4)CC3)C[C@H]2C)nc(C(C)(C)C)n1 (stereo partly drawn) [Compound 33, N-[4-[2-[(3R)-4-[2-tert-butyl-6-(2-methoxyethyl)pyrimidin-4-yl]-3-methyl-piperazin-1-yl]ethyl]cyclohexyl]-4-hydroxy-cyclohexanecarboxamide] | + (+: 20-120 μl min^−1 mg^−1) | < 50 | +++ (+++>50) |
| COCCc1cc(N2CCN(CC[C@H]3C[C@H](NC(=O)C4CCC(O)CC4)C3)CC2)nc(C(C)(C)C)n1 (relative stereo) [Compound 11, N-[trans-3-[2-[4-[2-tert-butyl-6-(2-methoxyethyl)pyrimidin-4-yl]piperazin-1-yl]ethyl]cyclobutyl]-4-hydroxy-cyclohexanecarboxamide] | + (+: 20-120 μl min^−1 mg^−1) | < 10 | ++ (++>20) |
| CC(C)(C)c1nc(C2CCC2)cc(N2CCN(CC[C@H]3CC[C@H](NC(=O)[C@H]4C[C@@H](O)C4)CC3)CC2)n1 [Compound 13, Cis-N-[trans-4-[2-[4-(2-tert-butyl-6-cyclobutyl-pyrimidin-4-yl)piperazin-1-yl]ethyl]cyclohexyl]-3-hydroxy-cyclobutanecarboxamide] | ∘ (∘: >120 μl min^−1 mg^−1) | < 10 | ++ (++>20) |
| COCCc1cc(N2CCN(CC[C@H]3C[C@@H](NC(=O)[C@H]4CC[C@H](O)CC4)C3)CC2)nc(C(C)(C)C)n1.O=C(O)C(F)(F)F [Compound 8, trans-N-[cis-3-[2-[4-[2-tert-butyl-6-(2-methoxyethyl)pyrimidin-4-yl]piperazin-1-yl]ethyl]cyclobutyl]-4-hydroxy-cyclohexanecarboxamide; 2,2,2-trifluoroacetic acid] | + (+: 20-120 μl min^−1 mg^−1) | < 10 | +++ (+++>50) |
